In PMC4745082, “A Novel PET Imaging Probe for the Detection and Monitoring of Translocator Protein 18 kDa Expression in Pathological Disorders” (Scientific Reports, 2016):

Experiments:
[1] = Ex vivo tissue distribution in normal ICR mice; conditions: for tissue radioactivity, Adrenal / tissue radioactivity, Blood / tissue radioactivity, Brain / tissue radioactivity, Femur / tissue radioactivity, Heart / tissue radioactivity, Kidney / tissue radioactivity, L. Intestine / tissue radioactivity, Liver / tissue radioactivity, Lung / tissue radioactivity, Muscle / tissue radioactivity, S. Intestine / tissue radioactivity, Spleen / tissue radioactivity, Stomach: normal ICR mice, tail-vein injection
Experimental: Purified [^18F]CB251 was reconstituted in a 10% ethanol-saline solution. Animals were killed at various times after tail-vein injection of [^18F]CB251 (0.74 MBq/0.2 mL per mouse) and the radioactivity concentrations were measured in various tissues upon dissection. […] The radioactivity concentration in the femur remained low for 120 min (1.19 ± 0.50%ID/g at 5 min post injection; 1.49 ± 0.80%ID/g at 120 min post injection).
Tissue distribution studies were performed in normal male ICR mice (7 weeks, 25-30 g) with tail-vein administration of [^18F]CB251 (0.74 MBq/mouse) dissolved in 10% ethanol in saline to a final volume of 200 μL. The animals (n = 5 for each time point) were euthanised with diethyl ether at 5, 15, 30, 60 and 120 min post injection. After the mice were euthanised, blood and other organs such as the heart, liver, lung, stomach, spleen, kidney, intestine, muscle, brain, adrenal and femur were removed, weighed and counted for radioactivity in a NaI (Tl) well counter (Wizard^TM3”, PerkinElmer). The injected dose was calculated from standards prepared from the injection solution. The accumulated radioactivity of all tissues is presented as the percentage of the injected dose per gram of tissue (%ID/g). All animal studies were performed with the approval of the Institutional Animal Care and Use Committee of the Seoul National University Bundang Hospital (SNUBH) and the methods were carried out in accordance with the approved guidelines.

[2] = Log D determination (n-octanol / sodium phosphate buffer pH 7.4); type: physicochemical; conditions: n-octanol / sodium phosphate buffer 0.15 M pH 7.4, measured four times
Experimental: After vortexing for 1 min, each tube was then stored for 3 min at room temperature and the phases were separated. Samples of each phase (100 μL) were counted for radioactivity. Log D is expressed as the logarithm of the ratio of the counts from n-octanol versus that of the sodium phosphate buffer.

CCCN(CCC)C(=O)Cc1c(-c2ccc(OCC[18F])cc2)nc2c(Cl)cc(Cl)cn12 [[^18F]CB251, 2-(2-(4-(2-[^18F]fluoroethoxy)phenyl)-6,8-dichloroimidazo[1,2-a]pyridin-3-yl)-N,N-dipropylacetamide]
uptake of radioactivity in the femur ([1]; healthy mice, summary bound in text, indicates negligible defluorination): < 2 %ID/g
uptake in TSPO-enriched tissues ([1]; male, ICR, mouse, in vivo): > 22 %ID/g
tissue radioactivity, Adrenal ([1]; 5 min post injection): 19.06 ± 5.48 %ID/g
tissue radioactivity, Adrenal ([1]; 15 min post injection): 22.60 ± 5.00 %ID/g
tissue radioactivity, Adrenal ([1]; 30 min post injection): 19.73 ± 3.42 %ID/g
tissue radioactivity, Adrenal ([1]; 60 min post injection): 12.69 ± 5.62 %ID/g
tissue radioactivity, Adrenal ([1]; 120 min post injection): 14.78 ± 8.26 %ID/g
tissue radioactivity, Blood ([1]; 5 min post injection): 4.39 ± 0.78 %ID/g
tissue radioactivity, Blood ([1]; 15 min post injection): 2.17 ± 0.40 %ID/g
tissue radioactivity, Blood ([1]; 30 min post injection): 1.24 ± 0.26 %ID/g
tissue radioactivity, Blood ([1]; 60 min post injection): 0.60 ± 0.12 %ID/g
tissue radioactivity, Blood ([1]; 120 min post injection): 0.64 ± 0.26 %ID/g
tissue radioactivity, Brain ([1]; 5 min post injection): 2.89 ± 0.23 %ID/g
tissue radioactivity, Brain ([1]; 15 min post injection): 1.94 ± 0.24 %ID/g
tissue radioactivity, Brain ([1]; 30 min post injection): 1.39 ± 0.13 %ID/g
tissue radioactivity, Brain ([1]; 60 min post injection): 0.63 ± 0.24 %ID/g
tissue radioactivity, Brain ([1]; 120 min post injection): 0.53 ± 0.23 %ID/g
tissue radioactivity, Femur ([1]; 5 min post injection): 1.19 ± 0.50 %ID/g
tissue radioactivity, Femur ([1]; 15 min post injection): 1.25 ± 0.41 %ID/g
tissue radioactivity, Femur ([1]; 30 min post injection): 1.94 ± 0.36 %ID/g
tissue radioactivity, Femur ([1]; 60 min post injection): 1.41 ± 0.64 %ID/g
tissue radioactivity, Femur ([1]; 120 min post injection): 1.49 ± 0.80 %ID/g
tissue radioactivity, Heart ([1]; 5 min post injection): 29.49 ± 2.36 %ID/g
tissue radioactivity, Heart ([1]; 15 min post injection): 24.16 ± 4.67 %ID/g
tissue radioactivity, Heart ([1]; 30 min post injection): 23.11 ± 5.16 %ID/g
tissue radioactivity, Heart ([1]; 60 min post injection): 10.47 ± 4.50 %ID/g
tissue radioactivity, Heart ([1]; 120 min post injection): 8.62 ± 4.57 %ID/g
tissue radioactivity, Kidney ([1]; 5 min post injection): 22.17 ± 1.63 %ID/g
tissue radioactivity, Kidney ([1]; 15 min post injection): 24.55 ± 5.11 %ID/g
tissue radioactivity, Kidney ([1]; 30 min post injection): 23.19 ± 5.68 %ID/g
tissue radioactivity, Kidney ([1]; 60 min post injection): 14.55 ± 5.74 %ID/g
tissue radioactivity, Kidney ([1]; 120 min post injection): 15.60 ± 8.55 %ID/g
tissue radioactivity, L. Intestine ([1]; 5 min post injection): 1.54 ± 0.19 %ID/g
tissue radioactivity, L. Intestine ([1]; 15 min post injection): 1.53 ± 0.13 %ID/g
tissue radioactivity, L. Intestine ([1]; 30 min post injection): 1.69 ± 0.21 %ID/g
tissue radioactivity, L. Intestine ([1]; 60 min post injection): 1.37 ± 0.56 %ID/g
tissue radioactivity, L. Intestine ([1]; 120 min post injection): 2.09 ± 1.07 %ID/g
tissue radioactivity, Liver ([1]; 5 min post injection): 4.69 ± 0.66 %ID/g
tissue radioactivity, Liver ([1]; 15 min post injection): 6.67 ± 1.10 %ID/g
tissue radioactivity, Liver ([1]; 30 min post injection): 8.19 ± 1.59 %ID/g
tissue radioactivity, Liver ([1]; 60 min post injection): 6.80 ± 2.64 %ID/g
tissue radioactivity, Liver ([1]; 120 min post injection): 7.17 ± 2.99 %ID/g
tissue radioactivity, Lung ([1]; 5 min post injection): 106.4 ± 8.61 %ID/g
tissue radioactivity, Lung ([1]; 15 min post injection): 65.70 ± 11.3 %ID/g
tissue radioactivity, Lung ([1]; 30 min post injection): 38.36 ± 3.97 %ID/g
tissue radioactivity, Lung ([1]; 60 min post injection): 17.69 ± 5.77 %ID/g
tissue radioactivity, Lung ([1]; 120 min post injection): 13.22 ± 6.10 %ID/g
tissue radioactivity, Muscle ([1]; 5 min post injection): 0.83 ± 0.34 %ID/g
tissue radioactivity, Muscle ([1]; 15 min post injection): 1.19 ± 0.22 %ID/g
tissue radioactivity, Muscle ([1]; 30 min post injection): 2.01 ± 0.34 %ID/g
tissue radioactivity, Muscle ([1]; 60 min post injection): 1.52 ± 0.59 %ID/g
tissue radioactivity, Muscle ([1]; 120 min post injection): 1.45 ± 0.65 %ID/g
tissue radioactivity, S. Intestine ([1]; 5 min post injection): 3.30 ± 0.73 %ID/g
tissue radioactivity, S. Intestine ([1]; 15 min post injection): 4.54 ± 0.60 %ID/g
tissue radioactivity, S. Intestine ([1]; 30 min post injection): 4.43 ± 0.90 %ID/g
tissue radioactivity, S. Intestine ([1]; 60 min post injection): 3.43 ± 1.35 %ID/g
tissue radioactivity, S. Intestine ([1]; 120 min post injection): 3.78 ± 1.96 %ID/g
tissue radioactivity, Spleen ([1]; 5 min post injection): 17.63 ± 3.38 %ID/g
tissue radioactivity, Spleen ([1]; 15 min post injection): 25.11 ± 2.16 %ID/g
tissue radioactivity, Spleen ([1]; 30 min post injection): 23.27 ± 3.52 %ID/g
tissue radioactivity, Spleen ([1]; 60 min post injection): 14.24 ± 4.47 %ID/g
tissue radioactivity, Spleen ([1]; 120 min post injection): 13.82 ± 5.17 %ID/g
tissue radioactivity, Stomach ([1]; 5 min post injection): 1.86 ± 0.48 %ID/g
tissue radioactivity, Stomach ([1]; 15 min post injection): 2.13 ± 0.77 %ID/g
tissue radioactivity, Stomach ([1]; 30 min post injection): 1.84 ± 0.49 %ID/g
tissue radioactivity, Stomach ([1]; 60 min post injection): 0.98 ± 0.41 %ID/g
tissue radioactivity, Stomach ([1]; 120 min post injection): 1.97 ± 0.95 %ID/g
logD [2]: 3 ± 0.03
